In patent US10952999B2, “Inhibitor of cyclin-dependent kinase CDK9” (GENFLEET THERAPEUTICS (SHANGHAI) INC., priority 2017, dated 2021):

What was measured:
CDK8/cyclin C = molecular target: T1, CDK8/cyclin C (Homo sapiens, UniProt P49336); assay: Enzyme assay for inhibition of CDK protein in vitro (Z-LYTE); assay type: biochemical
T1 construct: purchased Invitrogen, USA
Method: (§1) Compounds 1 and 14 diluted in DMSO were mixed with detected CDK protein (Invitrogen, USA) respectively, incubated at room temperature for 30 minutes; and then mixed with Kinase/Z-LYTE™ Peptide Substrate Mixture (Invitrogen, USA) and 4×ATP. The mixed system was transferred to a 384-well white opaque plate to react for 1 hour at room temperature; 5 μL of Development Solution (Invitrogen, USA) was added to react at room temperature for 1 hour, and finally Stop Reagent (Invitrogen, USA) was added to terminate the reaction and MD SpectraMax I3× microplate reader (Molecular Devices, USA) was used to read fluorescence values.

CDK11(non-active) = molecular target: T2, CDK11(non-active) (Homo sapiens, UniProt Q9BWU1); assay: as above; assay type: biochemical
T2 construct: purchased Invitrogen, USA
T2 sequence (Q9BWU1 whole entry): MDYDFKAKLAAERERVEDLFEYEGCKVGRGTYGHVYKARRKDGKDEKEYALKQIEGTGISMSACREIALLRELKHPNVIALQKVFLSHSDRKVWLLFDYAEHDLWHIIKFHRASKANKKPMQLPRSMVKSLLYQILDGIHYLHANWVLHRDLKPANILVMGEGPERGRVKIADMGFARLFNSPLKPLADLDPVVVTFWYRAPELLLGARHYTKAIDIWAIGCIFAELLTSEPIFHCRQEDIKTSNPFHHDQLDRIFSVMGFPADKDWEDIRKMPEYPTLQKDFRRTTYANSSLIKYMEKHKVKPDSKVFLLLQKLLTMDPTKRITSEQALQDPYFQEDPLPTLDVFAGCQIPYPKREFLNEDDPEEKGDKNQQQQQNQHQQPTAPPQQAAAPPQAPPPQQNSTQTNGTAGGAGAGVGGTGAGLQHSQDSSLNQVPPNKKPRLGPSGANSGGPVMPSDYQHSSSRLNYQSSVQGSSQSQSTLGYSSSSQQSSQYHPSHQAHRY
Method: as §1

CDK9/cyclin T1 = molecular target: T3, CDK9/cyclin T1 (Homo sapiens, UniProt P50750); assay: as above; assay type: biochemical
T3 construct: purchased Invitrogen, USA
T3 sequence (P50750 whole entry): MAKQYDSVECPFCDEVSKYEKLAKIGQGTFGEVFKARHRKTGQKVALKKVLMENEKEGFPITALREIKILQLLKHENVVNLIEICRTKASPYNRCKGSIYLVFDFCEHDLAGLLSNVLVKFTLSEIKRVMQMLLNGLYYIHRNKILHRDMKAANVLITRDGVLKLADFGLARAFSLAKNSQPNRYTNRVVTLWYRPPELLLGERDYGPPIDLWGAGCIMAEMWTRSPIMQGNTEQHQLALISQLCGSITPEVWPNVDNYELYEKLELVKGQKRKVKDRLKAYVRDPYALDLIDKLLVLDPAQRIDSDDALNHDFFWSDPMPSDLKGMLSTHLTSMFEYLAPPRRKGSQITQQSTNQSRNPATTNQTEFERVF
T3 sequence (O60563 whole entry partner): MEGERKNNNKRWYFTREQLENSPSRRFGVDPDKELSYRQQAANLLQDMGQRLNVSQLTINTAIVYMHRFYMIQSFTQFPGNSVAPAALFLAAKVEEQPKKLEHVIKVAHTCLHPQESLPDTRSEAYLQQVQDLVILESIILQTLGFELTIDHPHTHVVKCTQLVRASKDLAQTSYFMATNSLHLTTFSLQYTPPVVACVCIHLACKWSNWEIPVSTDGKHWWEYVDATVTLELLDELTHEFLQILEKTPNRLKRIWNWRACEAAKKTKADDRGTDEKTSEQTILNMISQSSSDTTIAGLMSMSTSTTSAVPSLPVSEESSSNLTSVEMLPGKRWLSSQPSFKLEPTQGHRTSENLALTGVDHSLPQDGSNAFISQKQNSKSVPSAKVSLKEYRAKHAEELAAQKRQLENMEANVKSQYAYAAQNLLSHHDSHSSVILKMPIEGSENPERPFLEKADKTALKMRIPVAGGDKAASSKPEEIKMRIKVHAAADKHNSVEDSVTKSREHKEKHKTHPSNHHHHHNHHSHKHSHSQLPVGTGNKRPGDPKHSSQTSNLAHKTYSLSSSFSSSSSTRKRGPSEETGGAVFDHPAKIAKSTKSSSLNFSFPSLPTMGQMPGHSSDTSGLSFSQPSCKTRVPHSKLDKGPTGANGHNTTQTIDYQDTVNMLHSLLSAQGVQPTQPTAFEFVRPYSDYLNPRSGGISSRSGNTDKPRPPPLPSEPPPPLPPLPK
Method: as §1

CDK3/cyclin E1 = molecular target: T4, CDK3/cyclin E1 (Homo sapiens, UniProt Q00526); assay: as above; assay type: biochemical
T4 construct: purchased Invitrogen, USA
T4 sequence (Q00526 whole entry): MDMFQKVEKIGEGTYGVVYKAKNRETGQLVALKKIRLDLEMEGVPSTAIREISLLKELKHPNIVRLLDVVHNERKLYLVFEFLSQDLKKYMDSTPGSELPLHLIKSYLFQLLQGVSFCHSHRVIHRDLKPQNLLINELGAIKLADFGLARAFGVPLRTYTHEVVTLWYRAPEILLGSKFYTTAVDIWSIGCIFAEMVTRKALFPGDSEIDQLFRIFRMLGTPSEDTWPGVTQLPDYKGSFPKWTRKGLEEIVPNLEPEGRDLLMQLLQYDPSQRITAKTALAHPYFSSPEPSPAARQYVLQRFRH
T4 sequence (P24864 whole entry partner): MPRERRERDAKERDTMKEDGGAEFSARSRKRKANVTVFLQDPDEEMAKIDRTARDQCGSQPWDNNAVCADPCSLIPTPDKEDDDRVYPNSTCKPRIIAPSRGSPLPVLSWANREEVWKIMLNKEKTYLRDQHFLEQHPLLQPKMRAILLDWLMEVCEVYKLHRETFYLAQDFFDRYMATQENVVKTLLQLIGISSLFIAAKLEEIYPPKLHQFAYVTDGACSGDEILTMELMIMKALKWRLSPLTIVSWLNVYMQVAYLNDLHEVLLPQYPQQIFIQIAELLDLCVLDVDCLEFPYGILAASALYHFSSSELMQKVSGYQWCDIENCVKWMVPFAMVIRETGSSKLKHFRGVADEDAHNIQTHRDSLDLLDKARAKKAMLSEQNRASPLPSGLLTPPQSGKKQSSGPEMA
Method: as §1

[1] = system: acute B cell leukemia cell line MEC-1; assay: Cancer cell growth, Cell Titer-Glo cell viability assay, 72 hours; assay type: cell-based; details: MEC-1, 72 hours
Text: (§2) In the examples, we used acute myelocytic leukemia (AML) OCI-AML-3, acute promyelocytic leukemia cell line NB-4, MDS-RAEB (myelodysplastic syndrome-excess blasts type) cell line SKM-1, human leukemia cell Nomo-1, acute myeloid leukemia cell line MOLM14, acute myeloid leukemia cell line MOLM13, acute myeloid leukemia cell line MV4-11, acute myeloid leukemia cell line HL-60, acute myeloid leukemia cell line OCI-AML-2, histiocytic lymphoma U-937, acute B cell leukemia cell line MEC-1, acute B cell leukemia cell line MEC-2, acute megakaryoblastic leukemia CMK, hamster lung cell CHL, hamster ovary cell CHO, human non-small cell lung cancer cell H1975, human non-small cell lung cancer cell H358, human small cell lung cancer cell H209, human lung adenocarcinoma cell H1395, human non-small cell lung cancer cell PC-9, human lung cancer cell H3122, human non-small cell lung cancer cell H2122, human non-small cell lung cancer cell H1915, human lung adenocarcinoma cell H1355, human non-small cell lung cancer cell HCC827, human breast cancer cell MDA-MB-231, human breast cancer cell MDA-MB-468, human breast cancer cell MCF-7, human breast cancer cell T47D, human breast cancer cell SK-Br-3, the above cells were purchased from ATCC.
(§3) Cell Titer-Glo® (Promega, USA) chemical self-luminescence cell viability assay kit was used to detect the number of viable cells by quantitatively measuring ATP in living cells, according to which to calculate GI50 and IC50.

[2] = system: acute myeloid leukemia cell line HL-60; assay: as above; assay type: cell-based; details: HL-60, 72 hours
Text: as §2, §3

[3] = system: human leukemia cell Nomo-1; assay: as above; assay type: cell-based; details: Nomo-1, 72 hours
Text: as §2, §3

[4] = system: histiocytic lymphoma U-937; assay: as above; assay type: cell-based; details: U-937, 72 hours
Text: as §2, §3

[5] = system: acute myeloid leukemia cell line MOLM13; assay: as above; assay type: cell-based; details: MOLM-13, 72 hours
Text: as §2, §3

[6] = system: acute megakaryoblastic leukemia CMK; assay: as above; assay type: cell-based
Text: as §2, §3

[7] = system: acute myeloid leukemia cell line OCI-AML-2; assay: as above; assay type: cell-based; details: OCI-AML2, 72 hours
Text: as §2, §3

hamster lung cell CHL = assay: as above; assay type: cell-based; details: for inhibitory effect on normal cell CHL (in words): CHL cells; for GI50: CHL, 72 hours
Text: as §2, §3

[8] = system: acute myeloid leukemia cell line MV4-11; assay: as above; assay type: cell-based; details: MV4-11, 72 hours
Text: as §2, §3

[9] = system: acute B cell leukemia cell line MEC-2; assay: as above; assay type: cell-based; details: MEC-2, 72 hours
Text: as §2, §3

[10] = system: acute myeloid leukemia cell line MOLM14; assay: as above; assay type: cell-based; details: MOLM-14, 72 hours
Text: as §2, §3

[11] = system: acute promyelocytic leukemia cell line NB-4; assay: as above; assay type: cell-based; details: NB4, 72 hours
Text: as §2, §3

[12] = system: MDS-RAEB (myelodysplastic syndrome-excess blasts type) cell line SKM-1; assay: as above; assay type: cell-based; details: SKM-1, 72 hours
Text: as §2, §3

hamster ovary cell CHO = assay: as above; assay type: cell-based; details: for inhibitory effect on normal cell CHO (in words): CHO cells; for GI50: CHO, 72 hours
Text: as §2, §3

[13] = system: acute myelocytic leukemia (AML) OCI-AML-3; assay: as above; assay type: cell-based; details: OCI-AML3, 72 hours
Text: as §2, §3

[14] = system: human lung adenocarcinoma cell H1355; assay: as above; assay type: cell-based; details: NCI-H1355, H1355, 72 hours
Text: as §2, §3

[15] = system: human non-small cell lung cancer cell HCC827; assay: as above; assay type: cell-based; details: HCC827, 72 hours
Text: as §2, §3

[16] = system: human breast cancer cell MCF-7; assay: as above; assay type: cell-based; details: MCF7, MCF-7, 72 hours
Text: as §2, §3

[17] = system: human non-small cell lung cancer cell H1915; assay: as above; assay type: cell-based; details: NCI-H1915, H1915, 72 hours
Text: as §2, §3

[18] = system: human non-small cell lung cancer cell PC-9; assay: as above; assay type: cell-based; details: PC-9, 72 hours
Text: as §2, §3

[19] = system: human small cell lung cancer cell H209; assay: as above; assay type: cell-based; details: NCI-H209, H209, 72 hours
Text: as §2, §3

[20] = system: human non-small cell lung cancer cell H358; assay: as above; assay type: cell-based; details: NCI-H358, H358, 72 hours
Text: as §2, §3

[21] = system: human lung cancer cell H3122; assay: as above; assay type: cell-based; details: NCI-H3122, H3122, 72 hours
Text: as §2, §3

[22] = system: human non-small cell lung cancer cell H1975; assay: as above; assay type: cell-based; details: NCI-H1975, H1975, 72 hours
Text: as §2, §3

[23] = system: human breast cancer cell MDA-MB-231; assay: as above; assay type: cell-based; details: MDA-MB-231, 72 hours
Text: as §2, §3

[24] = system: human lung adenocarcinoma cell H1395; assay: as above; assay type: cell-based; details: NCI-H1395, H1395, 72 hours
Text: as §2, §3

[25] = system: human non-small cell lung cancer cell H2122; assay: as above; assay type: cell-based; details: NCI-H2122, H2122, 72 hours
Text: as §2, §3

[26] = system: human breast cancer cell MDA-MB-468; assay: as above; assay type: cell-based; details: MDA-MB-468, 72 hours
Text: as §2, §3

[27] = system: human breast cancer cell T47D; assay: as above; assay type: cell-based
Text: as §2, §3

[28] = system: human breast cancer cell SK-Br-3; assay: as above; assay type: cell-based; details: SK-Br-3, 72 hours
Text: as §2, §3

T1 sequence (P49336 whole entry): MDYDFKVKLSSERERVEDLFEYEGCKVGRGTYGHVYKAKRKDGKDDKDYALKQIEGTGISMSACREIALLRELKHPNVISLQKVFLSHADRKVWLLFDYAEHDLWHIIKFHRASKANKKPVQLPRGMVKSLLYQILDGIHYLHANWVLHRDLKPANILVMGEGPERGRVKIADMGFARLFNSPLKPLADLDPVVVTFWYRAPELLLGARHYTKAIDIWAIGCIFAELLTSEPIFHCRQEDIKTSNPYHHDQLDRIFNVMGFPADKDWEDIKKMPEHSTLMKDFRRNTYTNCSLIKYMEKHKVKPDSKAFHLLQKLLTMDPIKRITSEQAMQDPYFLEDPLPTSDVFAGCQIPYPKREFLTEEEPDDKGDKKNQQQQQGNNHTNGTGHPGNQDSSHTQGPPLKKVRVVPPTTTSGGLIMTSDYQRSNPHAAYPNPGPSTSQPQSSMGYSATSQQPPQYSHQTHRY
T1 sequence (P24863 whole entry partner): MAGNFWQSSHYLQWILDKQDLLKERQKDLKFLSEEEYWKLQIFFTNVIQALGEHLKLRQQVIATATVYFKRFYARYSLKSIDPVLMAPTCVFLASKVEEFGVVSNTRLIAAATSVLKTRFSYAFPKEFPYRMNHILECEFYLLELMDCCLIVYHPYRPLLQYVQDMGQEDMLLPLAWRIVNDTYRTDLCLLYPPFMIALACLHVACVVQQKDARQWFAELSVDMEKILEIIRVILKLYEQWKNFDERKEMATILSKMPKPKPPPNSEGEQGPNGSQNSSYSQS

SMILES | GI50 ([1]; Homo sapiens, MEC1) [nM] | GI50 ([2]; Homo sapiens) [nM] | GI50 ([3]; Homo sapiens) [nM] | GI50 ([4]; Homo sapiens) [nM] | GI50 ([5]; Homo sapiens) [nM] | GI50 [6] [nM] | GI50 ([7]; Homo sapiens) [nM] | GI50 (hamster lung cell CHL) [nM] | GI50 ([8]; Homo sapiens) [nM] | GI50 ([9]; MEC2) [nM] | GI50 ([10]; Homo sapiens) [nM] | GI50 [11] [nM] | GI50 ([12]; Homo sapiens) [nM] | GI50 ([13]; Homo sapiens, OCI-AML-3) [nM] | inhibitory effect on normal cell CHL (in words) (hamster lung cell CHL) | inhibitory effect on normal cell CHO (in words) (hamster ovary cell CHO) | GI50 (hamster ovary cell CHO) [nM] | further results
COCCN[C@H]1CC[C@H](Nc2cc(-c3csc(NCC4CCOCC4)n3)ccn2)CC1 [Compound 18, (1r,4r)-N^1-(2-methoxyethyl)-N^4-(4-(2-(((tetrahydro-2H-pyran-4-yl)methyl)amino)thiazol-4-yl)pyridin-2-yl)cyclohexane-1,4-diamine] | 2500 | 980 | 3000 | 1100 | 1200 | 4000 | 1100 | 1200 | 910 | 1700 | 1200 | 1300 | 1100 | 2100 | – | – | 4100 | –
CCc1cnn2c(NCc3ccc[n+]([O-])c3)cc(N3CCCC[C@H]3CCO)nc12 [Dinaciclib, reference compound] | 11 | 8 | 34 | 3.6 | 3.3 | 9.9 | 13 | 180 | 7.6 | 10 | 4.5 | 10 | 10 | 11 | – | – | 160 | –
CC(=O)c1c(C)c2cnc(Nc3ccc(N4CCNCC4)cn3)nc2n(C2CCCC2)c1=O [Palbociclib, reference compound] | – | – | – | – | – | – | – | – | – | – | – | – | – | – | – | – | – | IC50 [14]: ~10000 nM; IC50 [15]: > 10000 nM; IC50 [16]: 1700 nM; IC50 [17]: 3600 nM; IC50 [18]: > 10000 nM; IC50 [19]: > 10000 nM; IC50 [20]: 6600 nM; IC50 [21]: 1200 nM; IC50 [22]: > 10000 nM; IC50 [23]: 5100 nM; IC50 [24]: > 10000 nM; IC50 [25]: 1600 nM; IC50 [26]: 2700 nM; IC50 [27]: 4100 nM; IC50 [28]: 3200 nM

The next lines start with results.

GI50 ([1]; Homo sapiens, MEC1) [nM] | GI50 ([2]; Homo sapiens) [nM] | GI50 ([3]; Homo sapiens) [nM] | GI50 ([4]; Homo sapiens) [nM] | GI50 ([5]; Homo sapiens) [nM] | GI50 [6] [nM] | GI50 ([7]; Homo sapiens) [nM] | GI50 (hamster lung cell CHL) [nM] | GI50 ([8]; Homo sapiens) [nM] | GI50 ([9]; MEC2) [nM] | GI50 ([10]; Homo sapiens) [nM] | GI50 [11] [nM] | GI50 ([12]; Homo sapiens) [nM] | GI50 ([13]; Homo sapiens, OCI-AML-3) [nM] | SMILES | inhibitory effect on normal cell CHL (in words) (hamster lung cell CHL) | inhibitory effect on normal cell CHO (in words) (hamster ovary cell CHO) | GI50 (hamster ovary cell CHO) [nM] | further results
37 | 56 | 110 | 11 | 12 | 36 | 6.6 | 1200 | 41 | 23 | 1.1 | 7.9 | 2 | 12 | COCCN[C@H]1CC[C@H](Nc2cc(-c3csc(NCC4(C#N)CCOCC4)n3)c(Cl)cn2)CC1 [Compound 14, 4-((4-(5-chloro-2-(((1r,4r)-4-((2-methoxyethyl)amino)cyclohexyl)amino)pyridin-4-yl)thiazol-2-ylamino)methyl)tetrahydro-2H-pyran-4-carbonitrile] | no inhibitory effect | no inhibitory effect | 1100 | IC50 (CDK8/cyclin C): > 10000 nM; IC50 (CDK11(non-active)): > 10000 nM; IC50 (CDK9/cyclin T1): 1.27 nM; IC50 (CDK3/cyclin E1): > 10000 nM
– | – | – | – | – | 42 | – | 200 | – | – | – | 32 | – | – | NC1CCC(Nc2cc(-c3cccc(NCc4cccc(F)c4)n3)c(Cl)cn2)CC1 (centres unmarked) [HY-16462, reference compound] | certain inhibitory effects | certain inhibitory effects | 290 | GI50 [1]: 48 nM; GI50 [2]: 37 nM; GI50 [3]: 63 nM; GI50 [4]: 31 nM; GI50 [5]: 32 nM; GI50 [7]: 71 nM; GI50 [8]: 27 nM; GI50 [9]: 36 nM; GI50 [10]: 33 nM; GI50 [12]: 40 nM; GI50 [13]: 47 nM
